Experimental data: the supplement of paper PMC10307832

Key:
Test in all cases: relative viability (nuclei count vs DMSO), 5 days (fraction); higher = more cells survive
[1] = compound: CN1C=C(C2=CC=CC=C21)/C=C\3/C4=C(C=CC=N4)NC3=O + C[C@@H](Oc1cc(-c2cnn(C3CCNCC3)c2)cnc1N)c1c(Cl)ccc(F)c1Cl [Crizotinib] (partner 1 µM)
How it was run: (§1)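 Values are medians from duplicate plates. Each reflects relative viability, defined as the nuclei count of treated wells over that of vehicle wells. Lung cancer cell lines in 1536-well plates were pin-tool dosed one day after seeding with one drug alone or with a fixed anchor-drug dose plus five library-drug doses (not always all listed) in √10 steps, then fixed, stained and imaged at 4× after 5 days.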

Trametinib + Olaparib = compound: CC(=O)Nc1cccc(-n2c(=O)n(C3CC3)c(=O)c3c(Nc4ccc(I)cc4F)n(C)c(=O)c(C)c32)c1 [Trametinib] + O=C(c1cc(Cc2n[nH]c(=O)c3ccccc23)ccc1F)N1CCN(C(=O)C2CC2)CC1 [Olaparib] (partner 8 µM)
How it was run: as §1

[2] = compound: CN1C=C(C2=CC=CC=C21)/C=C\3/C4=C(C=CC=N4)NC3=O + N=C(N)NC(=N)NCCc1ccccc1 [Phenformin] (partner 250 µM)
How it was run: as §1

Trametinib + Phenformin = compound: CC(=O)Nc1cccc(-n2c(=O)n(C3CC3)c(=O)c3c(Nc4ccc(I)cc4F)n(C)c(=O)c(C)c32)c1 [Trametinib] + N=C(N)NC(=N)NCCc1ccccc1 [Phenformin] (partner 250 µM)
How it was run: as §1

Cell Line | relative viability ([1]; first compound 0.02 µM) | relative viability ([1]; first compound 0.06325 µM) | relative viability ([1]; first compound 0.2 µM) | relative viability ([1]; first compound 0.6325 µM) | relative viability ([1]; first compound 2 µM) | relative viability (Trametinib + Olaparib; first compound 0.0025 µM) | relative viability (Trametinib + Olaparib; first compound 0.007906 µM) | relative viability (Trametinib + Olaparib; first compound 0.025 µM) | relative viability (Trametinib + Olaparib; first compound 0.07906 µM) | relative viability (Trametinib + Olaparib; first compound 0.25 µM) | relative viability ([2]; first compound 0.02 µM) | relative viability ([2]; first compound 0.06325 µM) | relative viability ([2]; first compound 0.2 µM) | relative viability ([2]; first compound 0.6325 µM) | relative viability ([2]; first compound 2 µM) | relative viability (Trametinib + Phenformin; first compound 0.0025 µM) | relative viability (Trametinib + Phenformin; first compound 0.007906 µM) | relative viability (Trametinib + Phenformin; first compound 0.025 µM) | relative viability (Trametinib + Phenformin; first compound 0.07906 µM) | relative viability (Trametinib + Phenformin; first compound 0.25 µM)
HCC-44 | 0.793 | 0.73 | 0.722 | 0.712 | 0.715 | 0.96 | 1.06 | 1.08 | 0.897 | 0.87 | 0.187 | 0.122 | 0.115 | 0.135 | 0.136 | 0.249 | 0.181 | 0.187 | 0.0805 | 0.0783
A-427 | 0.924 | 0.775 |  | 1 | 1.16 | 0.748 | 0.828 | 0.729 | 0.671 | 0.524 | 0.261 | 0.309 |  | 0.275 | 0.348 | 0.234 | 0.286 | 0.22 | 0.207 | 0.137
NCI-H596 | 0.932 | 1.01 | 0.936 | 0.89 | 0.891 | 0.664 | 0.594 | 0.589 | 0.516 | 0.463 | 0.858 | 0.67 | 0.619 | 0.698 | 0.709 | 0.713 | 0.704 | 0.485 | 0.622 | 0.411
RERF-LC-KJ | 0.831 | 0.829 | 0.787 | 0.77 | 0.718 | 0.926 | 0.81 | 0.919 | 0.907 | 0.648 | 0.434 | 0.415 | 0.444 | 0.474 | 0.482 | 0.371 | 0.391 | 0.382 | 0.371 | 0.321
NCI-H647 | 0.967 | 0.923 | 1.04 | 1.03 | 0.906 | 0.481 | 0.362 | 0.491 | 0.452 | 0.218 | 0.387 | 0.387 | 0.343 | 0.479 | 0.528 | 0.554 | 0.561 | 0.507 | 0.333 | 0.148
NCI-H1734 | 0.665 | 0.677 |  | 0.696 | 0.744 | 0.632 | 0.578 |  | 0.59 | 0.431 | 0.412 | 0.354 |  | 0.376 | 0.373 | 0.289 | 0.292 | 0.217 | 0.245 | 0.206
SK-LU-1 | 0.619 | 0.809 | 1.14 | 1.07 | 1.1 | 0.429 | 0.364 | 0.406 | 0.311 | 0.274 | 0.409 | 0.41 | 0.444 | 0.524 | 0.646 | 0.482 | 0.501 | 0.288 | 0.246 | 0.164
COR-L23 | 0.631 | 0.576 | 0.752 | 0.622 | 0.671 | 0.422 | 0.473 | 0.43 | 0.392 | 0.261 | 0.429 | 0.396 | 0.394 | 0.48 | 0.441 | 0.479 | 0.437 | 0.384 | 0.388 | 0.269
EMC-BAC-2 | 0.644 | 0.714 | 0.668 | 0.757 | 0.832 | 0.638 | 0.623 | 0.617 | 0.69 | 0.476 | 0.538 | 0.525 | 0.522 | 0.475 | 0.533 | 0.582 | 0.565 | 0.443 | 0.475 | 0.31
NCI-H1355 | 0.909 | 0.97 | 0.992 | 0.675 | 0.819 | 0.663 | 0.686 | 0.552 | 0.48 | 0.39 | 0.439 | 0.388 | 0.398 | 0.358 | 0.434 | 0.394 | 0.415 | 0.322 | 0.382 | 0.308
NCI-H1792 | 0.759 | 0.999 | 0.87 |  | 0.898 | 0.479 | 0.415 | 0.348 | 0.186 | 0.244 | 0.442 | 0.245 |  | 0.297 | 0.237 | 0.309 | 0.206 | 0.071 | 0.157 | 0.0553
NCI-H1944 | 0.939 | 0.995 |  | 1.24 | 1.18 | 0.39 | 0.343 | 0.341 | 0.288 | 0.236 | 0.21 | 0.181 |  | 0.181 | 0.167 | 0.187 | 0.159 | 0.152 | 0.148 | 0.137
ABC-1 | 1.03 | 0.988 | 1.03 | 1.04 | 1.43 | 0.821 | 0.725 | 0.977 | 0.752 | 1.13 | 0.226 | 0.242 | 0.23 | 0.244 | 0.21 | 0.236 | 0.259 | 0.226 | 0.213 | 0.221
HOP-62 | 0.902 | 0.938 | 0.789 | 0.918 | 1.01 | 0.395 | 0.377 | 0.417 | 0.376 | 0.125 | 0.645 | 0.678 | 0.72 | 0.664 | 0.752 | 0.692 | 0.643 | 0.441 | 0.331 | 0.209
NCI-H2009 | 0.958 | 0.97 | 1.05 | 1.15 | 1.14 | 0.693 | 0.768 | 0.508 | 0.338 | 0.308 | 0.486 | 0.518 | 0.509 | 0.502 | 0.513 | 0.394 | 0.302 | 0.231 | 0.213 | 0.215
